Measurements as given in patent US20180353501A1 (Arvinas, Inc., priority 2017, published 2018).

How the values were obtained:
Assay in all cases: Western blot MAPK family degradation selectivity, MDA-MB-231 cells
Format in all cases: cell-based
Settings in all cases: increasing concentrations
[1] = target: T1, p38γ (Homo sapiens, UniProt P53778)
T1 construct: with increasing concentrations of exemplary compound 50 and 46 in MDA-MB-231 cells; endogenous in cells; host or cells: MDA-MB-231
Text: (§1) FIGS. 12A, 12B, and 12C. Characterization of MAPK family degradation selectivity (related to FIGS. 9A, 9B, 9C, 13A, 13B, 13C, and 13D). (A) p38 MAPK family members (α, β, δ, γ) were aligned using the T-Coffee multiple sequence alignment server. Output results were then colored according to conservation (dark turquoise) and identity (lighter shades of turquoise) in Jalview. (B) Table summarizing pairwise sequence alignments (obtained in Jalview) and structural alignments for Ca atoms (obtained in PyMOL) using the doublyphosphorylated (pTGpY) active conformations of p38δ (PDB: 4MYG), p38α (PDB: 3PY3), and p38γ (PDB: 1CM8). No active conformation crystal structure of p38β currently exists. […] MAPK families are also divided based on their phosphorylation lip motif, (pTxpY). Note: JNK1 and JNK2 are expressed as two alternatively-spliced forms. JNK3 was not expressed in these cells.
(§2) To address the mechanistic questions surrounding PROTAC substrate specificity was assessed by synthesizing eight foretinib-based PROTACs that vary by linker length and by orientation of the VHL-recruiting molecule. PROTACs 1 and 48-50 (termed the ‘amide series’) were constructed using the previously-characterized “left-hand side” amide as a connection point for linker attachment to the VHL ligand, while PROTACs 5 and 45-47 (termed the ‘phenyl series’) incorporated an under-explored “right-hand side” phenyl ring attachment point of the linker to the VHL ligand (FIGS. 9A and 9B). […] PROTACs synthesized with different linker lengths, using two different points of attachment to the VHL-recruiting ligand promote distinct E3 ligase interfaces with a given p38 isoform, thereby enabling potential degradation selectivity. Indeed, this strategy of differential orientation of recruited VHL coupled with different PROTAC linker lengths enabled the identification of two PROTACs that each selectively degrade only a single p38 MAPK isoform in MDA-MB-231 cells (FIG. 9C). The examplary compound 50 and exemplary compound 46 result in potent and selective degradation of p38α and p38δ, respectively, without an observable “hook effect” within the tested dose range. […] Crucially, the DC50 for exemplary compound 50 on p38δ is >5 μM, as is the DC50 of exemplary compound 46 for p38α. Additionally, neither exemplary PROTAC degrades either of the two remaining p38 MAPK isoforms (β and γ), despite high sequence and structural conservation.
(§3) Lysates from MDA-MB-231 cells were washed once with ice cold PBS (1×), followed by lysis in buffer containing 25 mM Tris [pH 7.5], 0.25% sodium deoxycholate, 1% Triton X-100, supplemented with 1× protease inhibitor cocktail (Roche) and phosphatase inhibitors (10 mM NaF, 1 mM Na3VO4, and 20 mM β-glycerophosphate), unless otherwise noted. Lysates were spun at 14,000×g for 10 minutes at 4° C. and supernatant was evaluated for protein content using a Pierce BCA Protein Assay (Thermo Fisher Scientific). 25 to 50 μg of protein was loaded onto 10% SDS-PAGE gels or 4-20% Criterion TGX precast gradient gels (Bio-Rad), transferred to nitrocellulose membranes, and probed with the specified antibodies overnight at 4° C. in 1×TBS-Tween (Tris buffered saline plus 0.02% Tween 20) containing 5% non-fat milk. Immunoblots were visualized using a Bio-Rad ChemiDoc imaging instrument and subsequently processed and quantified using the accompanying Bio-Rad ImageLab software.

[2] = system: JNK2
Text: as §1, §2, §3

[3] = target: T2, p38β (Homo sapiens, UniProt Q15759)
T2 construct: with increasing concentrations of exemplary compound 50 and 46 in MDA-MB-231 cells; endogenous in cells; host or cells: MDA-MB-231
Text: as §1, §2, §3

[4] = system: JNK1
Text: as §1, §2, §3

[5] = target: T3, ERK1 (Homo sapiens, UniProt P27361)
T3 construct: with increasing concentrations of exemplary compound 50 and 46 in MDA-MB-231 cells; endogenous in cells; host or cells: MDA-MB-231
Text: as §1, §2, §3

[6] = target: T4, ERK2 (Homo sapiens, UniProt P28482)
T4 construct: with increasing concentrations of exemplary compound 50 and 46 in MDA-MB-231 cells; endogenous in cells; host or cells: MDA-MB-231
Text: as §1, §2, §3

T1 sequence (P53778 whole entry): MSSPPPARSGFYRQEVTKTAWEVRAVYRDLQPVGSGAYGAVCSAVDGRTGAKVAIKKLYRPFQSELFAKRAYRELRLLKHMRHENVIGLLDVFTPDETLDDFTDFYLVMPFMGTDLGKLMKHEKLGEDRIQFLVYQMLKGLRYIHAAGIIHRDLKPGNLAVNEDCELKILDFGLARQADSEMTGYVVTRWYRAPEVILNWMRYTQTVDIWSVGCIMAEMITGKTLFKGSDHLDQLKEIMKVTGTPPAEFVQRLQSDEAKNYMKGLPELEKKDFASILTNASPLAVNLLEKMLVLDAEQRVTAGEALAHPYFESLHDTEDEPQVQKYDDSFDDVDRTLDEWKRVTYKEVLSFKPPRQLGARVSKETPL
T3 sequence (P27361 whole entry): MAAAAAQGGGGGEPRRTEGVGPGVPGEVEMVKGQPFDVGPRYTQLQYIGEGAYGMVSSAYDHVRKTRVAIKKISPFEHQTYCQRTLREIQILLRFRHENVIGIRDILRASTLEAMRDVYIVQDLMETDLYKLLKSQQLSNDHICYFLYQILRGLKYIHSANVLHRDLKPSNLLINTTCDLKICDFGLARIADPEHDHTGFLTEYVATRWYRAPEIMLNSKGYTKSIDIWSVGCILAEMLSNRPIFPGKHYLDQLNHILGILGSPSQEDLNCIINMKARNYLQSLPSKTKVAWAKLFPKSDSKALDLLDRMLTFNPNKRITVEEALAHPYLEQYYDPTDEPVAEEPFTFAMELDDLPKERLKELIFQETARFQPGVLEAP
T2 sequence (Q15759 whole entry): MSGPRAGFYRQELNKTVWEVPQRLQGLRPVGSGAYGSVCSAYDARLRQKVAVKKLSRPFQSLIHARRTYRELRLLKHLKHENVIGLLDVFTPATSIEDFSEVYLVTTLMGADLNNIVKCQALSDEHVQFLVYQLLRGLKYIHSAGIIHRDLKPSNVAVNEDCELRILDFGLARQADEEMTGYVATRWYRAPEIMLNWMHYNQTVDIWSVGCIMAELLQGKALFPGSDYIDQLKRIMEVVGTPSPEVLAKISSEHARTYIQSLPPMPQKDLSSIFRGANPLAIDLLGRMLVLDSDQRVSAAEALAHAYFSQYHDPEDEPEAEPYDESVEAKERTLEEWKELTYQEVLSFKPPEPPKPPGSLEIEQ
T4 sequence (P28482 whole entry): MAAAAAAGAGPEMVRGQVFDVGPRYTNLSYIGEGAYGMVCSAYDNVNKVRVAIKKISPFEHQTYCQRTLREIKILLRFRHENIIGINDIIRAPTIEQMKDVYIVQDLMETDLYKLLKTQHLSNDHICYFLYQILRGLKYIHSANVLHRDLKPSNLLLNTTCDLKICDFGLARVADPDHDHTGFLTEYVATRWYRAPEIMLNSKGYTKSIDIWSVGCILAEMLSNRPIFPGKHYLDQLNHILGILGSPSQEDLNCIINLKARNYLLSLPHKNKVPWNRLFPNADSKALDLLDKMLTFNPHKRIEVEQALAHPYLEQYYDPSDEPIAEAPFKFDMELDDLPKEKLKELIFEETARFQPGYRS

COc1cc2c(Oc3ccc(NC(=O)C4(C(=O)Nc5ccc(F)cc5)CC4)cc3F)ccnc2cc1OCCOCCOCCOc1cc(-c2scnc2C)ccc1CNC(=O)[C@@H]1C[C@@H](O)CN1C(=O)[C@H](C(C)C)N1Cc2ccccc2C1=O [compound 46]
lack of degradation: degradation of p38γ [1] | degradation of JNK2 [2] | degradation of p38β [3] | degradation of JNK1 [4] | degradation of ERK1 [5] | degradation of ERK2 [6]

COc1cc2c(Oc3ccc(NC(=O)C4(C(=O)Nc5ccc(F)cc5)CC4)cc3F)ccnc2cc1OCCCCOCCCCOCC(=O)N[C@H](C(=O)N1C[C@H](O)C[C@H]1C(=O)NCc1ccc(-c2scnc2C)cc1)C(C)(C)C [compound 50, N-(3-fluoro-4-((7-(4-(4-(2-(((S)-1-((2S,4R)-4-hydroxy-2-((4-(4-methylthiazol-5-yl)benzyl)carbamoyl)pyrrolidin-1-yl)-3,3-dimethyl-1-oxobutan-2-yl)amino)-2-oxoethoxy)butoxy)buto-xy)-6-methoxyquinolin-4-yl)oxy)phenyl)-N-(4-fluorophenyl)cyclopropane-1,1-dicarboxa-mide]
lack of degradation: degradation of p38γ [1] | degradation of JNK2 [2] | degradation of p38β [3] | degradation of JNK1 [4] | degradation of ERK1 [5] | degradation of ERK2 [6]
